The test system of series [1] is BRAF-mutant melanoma (518A2). Description: Growth inhibition (MTT) in 518A2 melanoma cells. It is filed as cell-based, human.
The subject of series [2] is resistant colon (HT-29) cell line. Description: Growth inhibition (MTT) in HT-29 colon cancer cells. It is filed as cell-based, human.
In series [3] the test system is primary endothelial cells (HUVEC, human umbilical vein endothelial cells). Description: Growth inhibition in HUVEC. It is filed as cell-based. The conditions noted are these: for IC50: 72 h.
For series [4], the system named is resistant breast (MCF-7/Topo) cell line. Description: Growth inhibition in MCF-7/Topo breast cancer cells. It is filed as cell-based.
Series [5] deals with resistant cervix carcinoma (KB-V1/Vbl) cell line. Description: Growth inhibition in KB-V1/Vbl cervix carcinoma cells. The conditions noted are these: Homo sapiens, 72 h, read-out: IC50 KB-V1/Vbl. It is filed as cell-based.
Series [6] has as its system hybrid endothelial cells (Ea.hy926). Description: Growth inhibition in Ea.hy926 cells. It is filed as cell-based. To be noted: for IC50: Homo sapiens, EA.hy 926, 72 h.
The test system of series [7] is non-malignant fibroblasts (CF, chicken fibroblasts). Description: Growth inhibition in chicken fibroblasts. The conditions noted are these: Gallus gallus, Fibroblast, 72 h. It is filed as cell-based.
The test system of another series is 518A2 melanoma cells. Description: Western blot of 518A2 cell lysates: caspase-9 cleavage and histone H2B acetylation. To be noted: 518A2 cells; for acetylation of histone proteins (H2B) and alpha-tubulin after drug treatment: Western blot. It is filed as cell-based, human. The protocol:
Western blot analysis of 518A2 cell lysates after drug treatment (3-24 h).
Background: In western blotting, separated proteins are transferred to a membrane and probed.

The test system of series [8] is acetylated lysine residues in alpha-tubulin, 518A2 melanoma cells. Description: Immunoblot for acetylated alpha-tubulin in 518A2 cells. It is filed as cell-based, human. The conditions noted are these: […] or 5 μM, 24 h, versus SAHA 5 μM. The text has this: Cell lysates were subjected to gel electrophoresis and immunoblotting for acetylated lysine residues in alpha-tubulin (55 kDa).

For series [9], the system named is EGF-stimulated MCF-7/Topo cells. Description: Matrigel-Transwell-Migration Assay. It is filed as cell-based. The conditions noted are these: EGF 200 ng/mL, 48 h. As to the method: FIG. 6: Influence of imidazole-based HDAC inhibitors Et-Animacroxam (compound 3) and Bimacroxam (compound 4) on resistance factors in tumor cell lines. A: Western blot analysis of Akt-phosphorylation (phospho-Akt) in 518A2 and MCF-7/Topo cell lysates (10 μg protein each) after 6 h of incubation. […] The amount of invasive cells was determined after calcein treatment via fluorescence measurement and DMSO-treated controls without EGF were set to 100%.

A short description of another series: Tolerance in Balb/c mice. To be noted: two Balb/c mice. It is filed as in vivo. The text has this: FIG. 8: Tolerance of Et-Animacroxam (compound 3) in two Balb/c mice (x-axis: day 1-7; y-axis: weight in gram).
Series [10] deals with 1411HP xenograft (Cisplatin-resistant testicular cancer). Description: 1411HP xenograft model. It is filed as in vivo, mouse. To be noted: 150 mg/kg i.p. The protocol:
FIG. 9: Activity of Et-Animacroxam (compound 3) in the 1411HP xenograft model (left: before treatment; right: 24 h after treatment with 150 mg/kg i.p. of Et-Animacroxam).

The target in a further series is recombinant human HDAC1 (Homo sapiens, UniProt Q13547). Description: Fluorescence-based HDAC activity assay, recombinant HDAC1. The conditions noted are these: for fold less efficacious than vorinostat on HDAC1: relative to vorinostat IC50.
For the next series, the target named is T1, recombinant human HDAC6 (Homo sapiens, UniProt Q9UBN7).
T1 sequence (Q9UBN7 1-1215): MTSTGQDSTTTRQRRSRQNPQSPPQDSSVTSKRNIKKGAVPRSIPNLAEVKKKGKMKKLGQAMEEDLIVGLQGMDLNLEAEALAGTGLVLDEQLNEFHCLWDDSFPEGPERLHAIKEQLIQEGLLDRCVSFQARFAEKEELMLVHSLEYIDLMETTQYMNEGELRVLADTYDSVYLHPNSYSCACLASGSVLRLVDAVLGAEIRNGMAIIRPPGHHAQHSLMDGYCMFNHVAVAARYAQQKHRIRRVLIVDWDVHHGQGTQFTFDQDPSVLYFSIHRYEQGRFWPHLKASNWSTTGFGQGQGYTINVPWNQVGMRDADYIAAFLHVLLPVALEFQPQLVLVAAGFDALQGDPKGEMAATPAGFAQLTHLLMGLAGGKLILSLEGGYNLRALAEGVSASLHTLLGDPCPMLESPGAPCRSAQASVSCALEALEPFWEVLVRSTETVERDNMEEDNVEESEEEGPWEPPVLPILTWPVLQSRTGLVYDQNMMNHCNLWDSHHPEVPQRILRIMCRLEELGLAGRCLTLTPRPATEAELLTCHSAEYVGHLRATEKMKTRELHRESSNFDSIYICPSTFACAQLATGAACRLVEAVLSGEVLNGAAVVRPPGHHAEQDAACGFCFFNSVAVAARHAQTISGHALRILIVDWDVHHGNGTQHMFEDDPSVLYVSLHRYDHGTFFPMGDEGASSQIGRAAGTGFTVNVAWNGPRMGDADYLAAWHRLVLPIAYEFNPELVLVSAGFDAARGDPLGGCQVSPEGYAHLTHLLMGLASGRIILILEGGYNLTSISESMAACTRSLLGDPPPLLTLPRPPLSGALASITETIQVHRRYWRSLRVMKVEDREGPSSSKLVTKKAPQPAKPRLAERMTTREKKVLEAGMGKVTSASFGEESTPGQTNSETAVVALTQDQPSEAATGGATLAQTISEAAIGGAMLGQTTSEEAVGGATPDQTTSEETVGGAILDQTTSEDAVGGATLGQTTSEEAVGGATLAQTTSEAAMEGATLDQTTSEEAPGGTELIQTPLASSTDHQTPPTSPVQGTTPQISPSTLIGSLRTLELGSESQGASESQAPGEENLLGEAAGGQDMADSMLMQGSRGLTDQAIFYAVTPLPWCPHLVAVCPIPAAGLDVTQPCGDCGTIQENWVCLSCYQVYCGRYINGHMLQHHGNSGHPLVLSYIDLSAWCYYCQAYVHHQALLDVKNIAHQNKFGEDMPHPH
Description: Fluorescence-based HDAC activity assay, recombinant HDAC6.

Series [11] concerns HDAC active isolates from HeLa nuclear extract. Description: Fluorescence-based HDAC activity assay, HeLa nuclear extract. The conditions noted are these: read-out: HDAC inhibition IC50, HeLa nuclear extract; 0.5 μg extract, 25 μM Fluor-de-Lys substrate, 60 min.
Description: (§1) Briefly, cell pellets from mass cultures were resuspended and incubated in cell extraction buffer (20 mM HEPES, 10 mM KCl, 0.1 mM EDTA, 0.1 mM EGTA, 1.5 mM MgCl2, 0.5 mM DTT) containing 0.1% Triton X-100 to lyse cell membranes and leave intact nuclei. After centrifugation (3,000 g, 2 min), the supernatant containing cytosolic proteins was aspirated from the nuclei pellet and the protein concentration of the cytosolic fraction was determined by a standard Bradford assay (Pierce/Thermo Scientific).
(§2) A fluorescence-based HDAC activity assay was used to assess the compound specificity for distinct HDAC classes. […] The Fluor-de-Lys substrate used allows to measure broad-spectrum HDAC activity from extracts or recombinant protein.
Series [12] has as its system HDAC active isolates from HeLa cytosolic extract. Description: Fluorescence-based HDAC activity assay, HeLa cytosolic extract. The conditions noted are these: for IC50: read-out: HDAC inhibition IC50, HeLa cytosolic extract, 1 μg extract, 25 μM Fluor-de-Lys substrate, 60 min.
Description: as §1, §2
The subject of series [13] is HDAC active isolates from HeLa nuclear extract. The conditions noted are these: 0.5 μg extract, 25 μM Fluor-de-Lys substrate, 60 min; read-out: HDAC inhibition IC50, HeLa nuclear extract (values from Mahal et al. 2015); cited from earlier work.

Counter-ions that a name gives are not always drawn. Like-named read-outs stand apart in the source and are kept apart here. Where only a bound is given, the exact number is not on record here.

Sequence of recombinant human HDAC1 (Q13547 whole entry): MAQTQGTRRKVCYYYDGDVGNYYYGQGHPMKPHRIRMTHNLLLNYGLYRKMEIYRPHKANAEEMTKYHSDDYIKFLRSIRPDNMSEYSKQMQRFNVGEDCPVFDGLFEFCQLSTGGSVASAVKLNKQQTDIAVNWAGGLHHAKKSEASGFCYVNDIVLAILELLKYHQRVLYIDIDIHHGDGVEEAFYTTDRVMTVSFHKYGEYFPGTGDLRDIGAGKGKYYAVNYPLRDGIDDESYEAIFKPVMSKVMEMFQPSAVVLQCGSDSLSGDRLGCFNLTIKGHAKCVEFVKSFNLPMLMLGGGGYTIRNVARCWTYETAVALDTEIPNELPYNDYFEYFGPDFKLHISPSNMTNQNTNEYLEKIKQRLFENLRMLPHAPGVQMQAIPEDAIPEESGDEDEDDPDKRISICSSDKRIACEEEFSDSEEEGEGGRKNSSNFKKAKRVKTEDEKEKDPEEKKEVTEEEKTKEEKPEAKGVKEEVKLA
Description for recombinant human HDAC1: as §1, §2
Description for recombinant human HDAC6: as §2

Turning to `COc1ccc(-c2ncn(C)c2-c2ccc(C=CC(=O)NO)cc2)cc1` [Compound Nor-3, 1-Methyl-4-(4-methoxyphenyl)-5-(4′-hydroxyaminocarbonylethenyl-phenyl)-imidazole×HCl], the values for the IC50 in [1] (72 h), in [2] (72 h) and in series [3] were 1450 ± 70 nM, 710 ± 60 nM and 830 ± 260 nM, respectively.

A word on the melting point: it is the temperature, or range, at which the solid turns liquid. Compound `Cn1cnc(-c2ccccc2)c1-c1ccc(/C=C/C(=O)NO)cc1` (as salt: HCl) [Compound 4, 1-Methyl-4-phenyl-5-(4′-hydroxyaminocarbonylethenyl-phenyl)-imidazole×HCl] gave a melting point of 189 to 190 °C.

Take `CCn1cnc(-c2ccc(OC)cc2)c1-c1ccc(/C=C/C(=O)NO)cc1` [Compound 3, 1-Ethyl-4-(4-methoxyphenyl)-5-(4′-hydroxyaminocarbonylethenyl-phenyl)-imidazole×HCl]: the IC50 is 950 ± 190 nM in [1] (Homo sapiens, 518A2, 72 h); 450 ± 30 nM in series [2] (Homo sapiens, HT-29, 72 h); 5600 ± 330 nM in series [4] (Homo sapiens, MCF7/Topo, 72 h, read-out: IC50 MCF-7/Topo); 2910 ± 980 nM in series [5]; 990 ± 130 nM in series [6]; 1260 ± 450 nM in series [3] (Homo sapiens, HUVEC). The IC50 in series [7] is more than 50000 nM; at recombinant human HDAC1 it was 187 ± 37 nM; at recombinant human HDAC6, 66 nM; in series [11] it was 504 ± 24 nM; in series [12], 36 ± 14 nM. The “apoptosis induction (caspase-9-cleavage)” value with 518A2 melanoma cells (3-24 h) is given as “leads to apoptosis induction (caspase-9-cleavage)”. Also, in the series on 518A2 melanoma cells, the “acetylation of histone proteins (H2B) and alpha-tubulin after drug treatment” value is recorded as “vastly acetylated”. Further, in series [8], the acetylated alpha-tubulin entry is recorded as “much higher extent compared with cells treated with SAHA”. The “invasiveness of MCF-7/Topo cells” value in [9] is reported as “significantly reduced invasiveness”. Further, in the series “Tolerance in Balb/c mice” (2×20 mg/kg i.p. on two consecutive days), the signs of toxicity result is listed as “no signs of toxicity”. In the series “Tolerance in Balb/c mice” (2×20 mg/kg i.p., day 1-7), the “weight of treated mice” value is “roughly remained the same”. Further, the “diameter of bigger vessels of the tumor body” value in [10] (after 24 h) was “reduced significantly”. Also, in series [10] (mouse), the visible side effects entry is “did not cause any visible side effects”. In addition, the “fold less efficacious than vorinostat on HDAC1” value at recombinant human HDAC1 is on record as “ca. tenfold”. In addition, in series [12] (HeLa cytosolic extract), the “times more active than vorinostat in the cytosolic fraction” value is on record as “ca. four”. Moreover, the “times more HDAC inhibiting in the cytosolic than in the nuclear fraction” value in [12] (HeLa cytosolic vs nuclear extract) is “ca. 14 times”.

Regarding `Cn1cnc(-c2ccccc2)c1-c1cccc(C=CC(=O)NO)c1` [Compound iso-4, 1-Methyl-4-phenyl-5-(3′-hydroxyaminocarbonylethenyl-phenyl)-imidazole×HCl], the results for the IC50 in series [1] (72 h) and in series [2] (72 h) were 2230 ± 60 nM and 2800 ± 70 nM, respectively.

For `Cn1cnc(-c2ccc(F)cc2)c1-c1ccc(C=CC(=O)NO)cc1` [Compound F-3, 1-Methyl-4-(4-fluorophenyl)-5-(4′-hydroxyaminocarbonylethenyl-phenyl)-imidazole×HCl], the IC50 in series [1] (72 h) was 1940 ± 40 nM; in series [2] (72 h), 1450 ± 60 nM.

As to `Cn1cnc(-c2ccccc2)c1-c1ccc(/C=C/C(=O)NO)cc1` [Compound 4, 1-Methyl-4-phenyl-5-(4′-hydroxyaminocarbonylethenyl-phenyl)-imidazole×HCl], the IC50 in series [1] (Homo sapiens, 518A2, 72 h) amounted to 2760 ± 620 nM; in series [2] (Homo sapiens, HT-29, 72 h), 1330 ± 70 nM; in [4] (Homo sapiens, MCF7/Topo, 72 h; read-out: IC50 MCF-7/Topo) it was 15300 ± 1400 nM; in series [5], 5040 ± 1820 nM; in series [6], 160 ± 30 nM; in series [3] (Homo sapiens, HUVEC), 550 ± 290 nM. Further, the IC50 in series [7] is more than 50000 nM; in series [13] it was 234 nM; on recombinant human HDAC1, 28 ± 11 nM; at recombinant human HDAC6 it was 107 ± 23 nM; in [12], 132 ± 14 nM. The “fold stronger in the Ea.hy926 cell line compared with 3 and SAHA” value in [6] (Ea.hy926) was 10 fold. Moreover, the “fold stronger in primary endothelial cells compared with 3 and SAHA” value in series [3] (HUVEC) is given as 12 fold. Also, the “acetylation of histone proteins (H2B) and alpha-tubulin after drug treatment” value in the series with 518A2 melanoma cells is “vastly acetylated”. Besides, the acetylated alpha-tubulin entry in [8] is “much higher extent compared with cells treated with SAHA”. In addition, the “fold less efficacious than vorinostat on HDAC1” value on recombinant human HDAC1 is recorded as “ca. twofold”.

Values taken from patent publication US9868750B2, “4,5-diarylimidazole derivatives as HDAC inhibitors” (CHARITÉ—UNIVERSITÄTSMEDIZIN BERLIN, priority 2014, dated 2018).
